Results published in US20200277571A1, “METHOD FOR AMPLIFYING CONE PHOTORECEPTORS OR ROD PHOTORECEPTORS USING DORSALIZATION SIGNAL TRANSMITTER OR VENTRALIZATION SIGNAL TRANSMITTER” (RIKEN, priority 2017, published 2020).

Columns and labels:
[1] = tested on: cone photoreceptor precursor and rod photoreceptor precursor in retinal tissue produced from human ES cells; assay: Immunostaining for GFP (CRX::Venus), RXR-γ and NRL of retinal tissue, day 191-192, image analysis; type: cell-based; settings: for proportion of rod photoreceptor precursor (Rod-like; NRL-positive) / proportion of cone photoreceptor precursor (Cone; RXR-γ-positive and NRL-negative): day 191-192, 100 nM LDN193189 or 100 nM SAG day 22 to day 100; for proportion of rod photoreceptor precursor (Rod-like; NRL-positive) / proportion of cone photoreceptor precursor (Cone; RXR-γ-positive and NRL-negative) / proportion of NRL-positive rod photoreceptor precursor among photoreceptor precursors versus Control group: 0.15 nM BMP4, 500 nM Cyclopamine-KAAD; for proportion of rod photoreceptor precursor (Rod-like; NRL-positive): Control (NUC) about 12.8%; for proportion of cone photoreceptor precursor (Cone; RXR-γ-positive and NRL-negative): Control (NUC) about 22.7%; for proportion of NRL-positive rod photoreceptor precursor among photoreceptor precursors versus Control group: 100 nM LDN193189, 100 nM SAG day 22 to day 100; for proportion of RXR-γ-positive cone photoreceptor precursor among photoreceptor precursors versus Control group: 500 nM Cyclopamine-KAAD or 100 nM SAG day 22 to day 100
Method: A cell aggregate containing a retinal tissue was prepared by the method described in “Kuwahara et al. Nat Commun 2015, 19(6), 6286-” after modification in part. That is, the aforementioned cultured ES cells were individually dispersed using TrypLE Express (Invitrogen), and the individually dispersed human ES cells were suspended in 100 μL of a serum-free medium in a cell non-adhesive 96 well plate (SUMILON spheroid plate, SUMITOMO BAKELITE CO., LTD.) at 9×10^3 cells per well to allow rapid formation of aggregates, after which they were cultured at 37° C., 5% CO2. As the serum-free medium therefor, a serum-free medium obtained by adding 10% KSR, 450 μM 1-monothioglycerol, 1× Chemically defined lipid concentrate, 5 mg/mL BSA, 20 μM Y27632 to a 1:1 mixture of F-12 medium and IMDM medium was used. At 6 days after the start of suspension culture, BMP4 at a final concentration of 1.5 nM was added and suspension culture was continued. A half amount of the culture medium in the well was exchanged with the above-mentioned medium not supplemented with a BMP signal transduction pathway agonist every 3 or 4 days. A cell aggregate containing a retinal tissue at day 18 from the start of suspension culture was cultured in suspension in a serum-free medium (DMEM/F12 medium supplemented with 1% N2 supplement) containing 3 μM CHIR99021 and 5 μM SU5402 for 4 days, namely, up to day 22 from the start of suspension culture. Thereafter, suspension culture of the cell aggregate containing the retinal tissue was continued until it was appropriately used for analysis and the like. As the culture medium during this period, serum-containing media shown in the following to [3] were used and the cell aggregate was cultured under 5% CO2 conditions.
[1] day 22 to day 38 from the start of suspension culture; DMEM/F12 medium supplemented with 10% fetal calf serum, 1% N2 supplement, and 100 μM taurine. day 38 to day 60 from the start of suspension culture; a 1:3 mixed medium of DMEM/F12 medium supplemented with 10% fetal calf serum, 1% N2 supplement, and 100 μM taurine, and Neurobasal medium supplemented with 10% fetal calf serum, 2% B27 supplement, and 100 μM taurine. after day 60 from the start of suspension culture; Neurobasal medium supplemented with 10% fetal calf serum, 2% B27 supplement, and 100 μM taurine.
[1] Control group (FIG. 3a, f, k, p); according to the method described in Example 1, cultured without addition up to day 191 from the start of suspension culture. [2]+BMP group (FIG. 3b, g, 1, q); 0.15 nM BMP4 was added from day 22 to day 100 from the start of suspension culture and cultured up to day 191 from the start of suspension culture. From day 100 to day 191 from the start of suspension culture, cultured in medium described in Example 1. [3]+Cyclopamine-KAAD group (FIG. 3c, h, m, r); 500 nM Cyclopamine-KAAD was added from day 22 to day 100 from the start of suspension culture, and cultured up to day 191 from the start of suspension culture. From day 100 to day 191 from the start of suspension culture, cultured in medium described in Example 1. [4]+LDN193189 group (FIG. 3d, i, n, s); 100 nM LDN193189 was added from day 22 to day 100 from the start of suspension culture, and cultured up to day 191 from the start of suspension culture. From day 100 to day 191 from the start of suspension culture, cultured in medium described in Example 1. [5]+SAG group (FIG. 3e, j, o, t); 100 nM SAG was added from day 22 to day 100 from the start of suspension culture, and cultured up to day 191 from the start of suspension culture. From day 100 to day 191 from the start of suspension culture, cultured in medium described in Example 1. […]

ALDH1A3 gene = assay: Quantitative PCR of ALDH1A3 gene expression in retinal tissue; type: cell-based, human; settings: about day 70-75, 0.15 nM BMP4, 100 nM LDN193189, 100 nM SAG from day 22
Method: (§1) [1] Control group (FIG. 2a, f, k, p); according to the method described in Example 1, culture was performed up to day 70 or day 75 from the start of suspension culture and without addition. [2]+BMP group (FIG. 2b, g, 1, q); 0.15 nM BMP4 was added from day 22 from the start of suspension culture to completion of suspension culture, and cultured up to day 70 or day 75 from the start of suspension culture. [3]+Cyclopamine-KAAD group (FIG. 2c, h, m, r); 500 nM Cyclopamine-KAAD was added from day 22 from the start of suspension culture to completion of the suspension culture, and cultured up to day 70 or day 75 from the start of suspension culture. [4]+LDN193189 group (FIG. 2d, i, n, s); 100 nM LDN193189 was added from day 22 from the start of suspension culture to completion of the suspension culture, and cultured up to day 70 or day 75 from the start of suspension culture. [5]+SAG group (FIG. 2e, j, o, t); 100 nM SAG was added from day 22 from the start of suspension culture to completion of the suspension culture, and cultured up to day 70 or day 75 from the start of suspension culture.
RNA was extracted from retinal tissue on about day 70-75 from the start of suspension culture and prepared under the same conditions, cDNA was synthesized, and the ALDH1A3 gene expression level was analyzed by quantitative PCR. As a result, the expression level of the ALDH1A3 gene was suppressed in +BMP4 group as compared to the Control (NUC) group, and the expression was promoted in +LDN193189 group, +SAG group (FIG. 7, white bar (d70) in graph), as similarly observed by immunostaining. In addition, RNA was extracted from retinal tissue on about day 40-44 from the start of suspension culture and cultured under the same conditions except the culture period, cDNA was synthesized, and the ALDH1A3 gene expression level was analyzed by quantitative PCR. As a result, the expression level scarcely changed on about day 40 from the start of suspension culture as compared to on about day 70 from the start of suspension culture and difference was not found (FIG. 7, black bar (d40) in graph).

CYP26A1 gene = assay: Quantitative PCR of CYP26A1 gene expression in retinal tissue; type: cell-based, human; settings: about day 70, 0.15 nM BMP4 or 100 nM LDN193189 from day 22
Method: as §1
On the other hand, using cDNA on about day 70 from the start of suspension culture, the expression level of CYP26A1 gene was analyzed. […]

Row | Compound | proportion of rod photoreceptor precursor (Rod-like; NRL-positive) [1] | proportion of cone photoreceptor precursor (Cone; RXR-γ-positive and NRL-negative) [1] | proportion of NRL-positive rod photoreceptor precursor among photoreceptor precursors versus Control group ([1]; day 191) | CRX::Venus-positive photoreceptor precursor ([1]; day 191, 500 nM Cyclopamine-KAAD day 22 to day 100) | proportion of RXR-γ-positive cone photoreceptor precursor among photoreceptor precursors versus Control group ([1]; day 191) | expression level of the ALDH1A3 gene versus Control (NUC) group (ALDH1A3 gene) | expression of CYP26A1 gene (CYP26A1 gene)
1 | CC1=C2C[C@H]3[C@@H](CC=C4CC(=O)CC[C@@]43C)[C@@H]2CC[C@]12O[C@@H]1C[C@H](C)CN(CCNC(=O)CCCCCNC(=O)CCc3ccccc3)[C@H]1[C@H]2C [Cyclopamine-KAAD] | about 11.5% | about 30.2% | decreased somewhat | can be increased | can increase | – | –
2 | c1ccc2c(-c3cnn4cc(-c5ccc(N6CCNCC6)cc5)cnc34)ccnc2c1 [LDN193189, 4-[6-(4-piperazin-1-ylphenyl)pyrazolo[1,5-a]pyrimidin-3-yl]quinoline] | about 14.0% | about 20.0% | increased | – | – | promoted | suppresses
3 | CNC1CCC(N(Cc2cccc(-c3ccncc3)c2)C(=O)c2sc3ccccc3c2Cl)CC1 (centres unmarked) [SAG] | about 17.2% | about 12.6% | increased | – | low | promoted | –
4 | BMP4: BMP protein; BMP signal transduction pathway agonist used as dorsalization signal transmitter | about 6.1% | about 31.3% | reduced | – | – | suppressed | promotes
